From PubChem BioAssay AID858 (Vanderbilt High Throughput Screening Facility, 2007)
Activity calls are given as the source filed them.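 How the source made its calls: active means at least two of three replicate dose series yielding a converging curve fit, whether well or thinly supported; inactive means the rest.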

The compounds below were run against D(1A) dopamine receptor (Homo sapiens) (UniProt P21728) (assay: concentration-dependent D1 reporter signal change – cell-based, CRE-luciferase, HEK293, dopamine EC30, D1 allosteric modulator project, dose response (AID 858);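 further: HEK 293 cells bearing human D1 receptor stimulated by dopamine at its EC30; luciferase light from a cAMP response element reporter gene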).
D(1A) dopamine receptor (Homo sapiens), sequence (P21728 whole entry, looked up): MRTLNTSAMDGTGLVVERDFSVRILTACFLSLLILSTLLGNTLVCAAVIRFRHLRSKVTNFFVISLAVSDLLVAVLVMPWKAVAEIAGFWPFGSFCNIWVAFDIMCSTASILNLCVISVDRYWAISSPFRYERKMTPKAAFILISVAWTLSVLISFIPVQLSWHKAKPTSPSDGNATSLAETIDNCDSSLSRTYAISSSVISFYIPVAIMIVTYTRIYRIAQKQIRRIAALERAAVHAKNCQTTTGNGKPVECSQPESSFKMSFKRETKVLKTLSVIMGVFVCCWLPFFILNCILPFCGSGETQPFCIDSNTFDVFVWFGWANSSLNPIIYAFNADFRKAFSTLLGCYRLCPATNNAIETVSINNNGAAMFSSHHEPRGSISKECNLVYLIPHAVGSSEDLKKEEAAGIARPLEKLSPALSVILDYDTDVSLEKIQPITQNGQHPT
In the case of `CCn1c2ccccc2c2nnc(SCCCn3c(=O)[nH]c4ccccc43)nc21`, the outcome is reported as “inactive”.
For `N#Cc1cc2ccccc2nc1SCC(=O)Nc1ccc(S(=O)(=O)N2CCCC2)cc1`, the outcome was “inactive”.
For `Cc1cc(C)n(CC(=O)n2c3c(c4ccccc42)CCCC3)n1`, the outcome was “inactive”.
For `CCCCn1c(=O)c(C(=O)Nc2cnccn2)c(O)c2ccccc21`, the outcome was “inactive”.
`CS(=O)(=O)c1sc2nc(-c3cccs3)cc(-c3ccccc3)c2c1N` was tested, and the outcome was “inactive”.
For `CCOC(=O)c1c(NC(=O)c2cccs2)sc(C)c1CC`, the outcome was “inactive”.
In the case of `COc1ccc2c(c1)C(=O)N(c1ccccc1OC)C(=O)C2(C)C`, the outcome is reported as “inactive”.
`Clc1ccccc1Cn1nnc2c(N3CCCC3)ncnc21` was tested, and the outcome was “inactive”.
With `COc1ccc(Cn2nnc3c(=O)[nH]c(C4CCCN(C(=O)c5ccccc5)C4)nc32)cc1` (stereo unspecified) the outcome was “inactive”.
For `c1ccc(-c2nc3ccccc3c3nncn23)cc1`, the outcome was “inactive”.
For `Clc1cccc(Nc2c3c(nc4ncnn24)CCC3)c1`, the outcome was “inactive”.
`Cc1cccc(C2CC(c3ccc(F)cc3)Nc3nc(N)nn32)c1` (stereo unspecified) was tested, and the outcome was “inactive”.
`CCOC(=O)c1c(-c2ccncc2)csc1N` was tested, and the outcome was “inactive”.
With `COc1ccc(Cc2nnc(NC(=O)c3c(-c4ccccc4)noc3C)s2)cc1` the outcome was “inactive”.
In the case of `CCOC(=O)c1ccc(N2CN=C3SCC(=O)N3C2)cc1`, the outcome is reported as “inactive”.
With `O=c1c2cc(Cl)ccc2[nH]c(=S)n1Cc1ccco1` the outcome was “inactive”.
With `COc1ccccc1-c1nnc2n1N=C(C(C)(C)C)CS2` the outcome was “inactive”.
With `O=C(CCCc1nc2ccccc2s1)N1CCN(S(=O)(=O)c2cccs2)CC1` the outcome was “inactive”.
With `CCOc1ccc(N/C(SC)=C(/C#N)C(N)=O)cc1` the outcome was “inactive”.
With `CCOC(=O)N1CCN(C(=O)CCCn2c(=S)[nH]c3ccccc3c2=O)CC1` the outcome was “inactive”.
For `Cc1ccccc1NC(=O)c1nc[nH]c1C(=O)NCc1ccccc1`, the outcome was “inactive”.
`O=c1n(Cc2ccccc2)c2cc(Cl)cnc2n1Cc1ccccc1` was tested, and the outcome was “inactive”.
In the case of `CC(=O)c1cc(C#N)c(SCc2ccncc2)nc1C`, the outcome is reported as “inactive”.
`COCCCNc1c2c3c(cccc3[nH]c1=O)C(=O)c1ccccc1-2` was tested, and the outcome was “inactive”.
`COC(=O)c1cc(=O)n(Cc2ccco2)c(=Nc2ccc(F)c(Cl)c2)s1` was tested, and the outcome was “inactive”.
`COC(=O)c1cc(NC(=O)CSc2nc(C)cc(=O)[nH]2)cc(C(=O)OC)c1` was tested, and the outcome was “inactive”.
Work on `C1CCC(c2nn3c(-c4n[nH]c5c4CCC5)nnc3s2)CC1` yielded an EC50 of 1140 nM.
With `CCOC(=O)N1CCN(S(=O)(=O)c2ccc3c(c2)CCN3C(=O)C2CCC2)CC1` the outcome was “inactive”.
With `COc1ccc(-c2noc(-c3ccco3)n2)cc1OC` the outcome was “inactive”.
With `COc1ccc(CCN(C)C(=O)C2CCCN(Cc3ccc(OC)c(OC)c3)C2)cc1OC` (stereo unspecified) the outcome was “inactive”.
`COc1ccc(NC(=O)c2ccc(NS(=O)(=O)c3c(C)noc3C)cc2)cc1OC` was tested, and the outcome was “inactive”.
For `COc1ccc(-c2noc(COc3ccc4ccccc4c3Br)n2)cc1OC`, the outcome was “inactive”.
For `CCC1(CC)C(=O)NC(=NCCc2c[nH]c3ccccc23)NC1=O`, the outcome was “inactive”.
For `CSc1ccc(C2C(C#N)=C(N)N(c3ccccc3)C3=C2C(=O)CCC3)cc1` (stereo unspecified), the outcome was “inactive”.
Compound `CC1(C)Cc2c(C#N)c(NC3CCCCC3)nc(-c3ccco3)c2CO1` has an EC50 of 2600 nM.
In the case of `CCn1c(=O)c(C(=O)NCc2cccnc2)c(O)c2ccccc21`, the outcome is reported as “inactive”.
For `Cn1c(=O)c2c(-c3ccccc3)n(N3CCOCC3)cc2n(C)c1=O`, the outcome was “inactive”.
`CCCCNC(=O)Nc1ccc(Br)cn1` gave an EC50 of 2430 nM.
With `Cc1[nH]n(-c2ccccc2)c(=O)c1S(=O)(=O)c1ccccc1` the outcome was “inactive”.
For `c1csc(-c2nn3c(Cn4nnc5ccccc54)nnc3s2)c1`, the outcome was “inactive”.
For `N#CCSc1nc2c(sc(=S)n2Cc2ccco2)c(=O)n1-c1ccc(F)cc1`, the outcome was “inactive”.
In the case of `COC(=O)c1ccc(COc2nc(C)cc(C)c2C#N)o1`, the outcome is reported as “inactive”.
With `CCn1nc(C(=O)NC2=NCCS2)c2ccccc2c1=O` the outcome was “inactive”.
With `CCOC(=O)CN(C(=O)CSc1nnc(-c2ccc(OC)c(OC)c2)o1)c1ccc(F)cc1` the outcome was “inactive”.
With `N#CCCN1CCN(S(=O)(=O)c2ccc(S(=O)(=O)NC3CCCCC3)cc2)CC1` the outcome was “inactive”.
`Cc1noc(C)c1CSc1ncnc2ccccc12` was tested, and the outcome was “inactive”.
In the case of `Cc1onc(-c2ccccc2)c1C(=O)Nc1ccc2c(c1)OCO2`, the outcome is reported as “inactive”.
`O=C1N(CN2CCN(c3cccc(Cl)c3)CC2)c2ccccc2C12OCCCO2` was tested, and the outcome was “inactive”.
`COc1cc(OC)cc(C(=O)Nn2cc(C(=O)N3CCN(C)CC3)c3ccccc3c2=O)c1` was tested, and the outcome was “inactive”.
For `CC(C)c1ccc(-c2nc(N3CCCCC3)[nH]c(=O)c2C#N)cc1`, the EC50 was 1750 nM.
In the case of `Cc1cc(N2CCN(S(=O)(=O)c3ccc4c(c3)OCCO4)CC2)n2ncnc2n1`, the outcome is reported as “inactive”.
In the case of `CCOC(=O)c1c(C)oc2c1c(C=NCc1ccccn1)c(O)c1ccccc12`, the outcome is reported as “inactive”.
`Nc1nc(SCc2ccc3c(c2)OCCO3)n[nH]1` was tested, and the outcome was “inactive”.
`CSc1nc2c(c(=O)n1-c1ccccc1)SCC2` was tested, and the outcome was “inactive”.
With `Cc1cc(C)nc(SCC(=O)Nc2ncc3c(n2)CC(C)(C)CC3=O)n1` the outcome was “inactive”.
With `COc1ccc(N2C(=O)C3CCCN3C2c2ccccc2)cc1Cl` (stereo unspecified) the outcome was “inactive”.
`CCN(CC)CCOc1c(Br)ccc2c1sc1nc3n(c(=O)c12)CCC3` was tested, and the outcome was “inactive”.
`N#Cc1nc(-c2ccc(F)cc2)oc1NCc1ccccc1` was tested, and the outcome was “inactive”.
With `C/C(CCc1oc2ccccc2c1-c1ccc(C)o1)=N/O` the outcome was “inactive”.
For `Cn1c(Cn2c(=O)sc3ccccc32)nnc1SCC(=O)N1CCOCC1`, the outcome was “inactive”.
`CCOC(=O)c1oc2ccc(Br)cc2c1NC(=O)CN1CCN(C)CC1` was tested, and the outcome was “inactive”.
With `O=S(=O)(c1ccccc1)c1nc(-c2ccco2)oc1N1CCCCCC1` the outcome was “inactive”.
`O=c1cc(-c2ccccc2)c2c([nH]1)CCCC2` was tested, and the outcome was “inactive”.
With `COC(=O)Nc1ccc2c(c1)N(C(=O)CCN1CCOCC1)c1ccccc1S2` the outcome was “inactive”.
With `CCC(C)Nc1nc(OC)nc(N(C)C#N)n1` (stereo unspecified) the outcome was “inactive”.
With `c1ccc(-c2nc3nonc3nc2-c2ccccc2)cc1` the outcome was “inactive”.
With `C=CCn1c2ccccc2c2nnc(SCC(=O)NC(C(=O)OC)C(C)C)nc21` (stereo unspecified) the outcome was “inactive”.
`CCOC(=O)NCCc1ccc(OC)cc1` was tested, and the outcome was “inactive”.
For `Cc1cc(-c2ccccc2)c(C#N)c(SCC(N)=O)n1`, the outcome was “inactive”.
`Cc1ccc(-c2nc3ncccn3c2NC(=O)C2CC2)cc1` was tested, and the outcome was “inactive”.
For `CCn1c(SCC(=O)Nc2cc(C)on2)nc2c(c1=O)SC(C)C2` (stereo unspecified), the outcome was “inactive”.
For `c1ccc(Nc2nc3ccccc3n3cnnc23)cc1`, the outcome was “inactive”.
`CCC(C)Sc1nc2c(c(=O)n1C)SC(C)C2` (stereo unspecified) was tested, and the outcome was “inactive”.
`Cc1cc(O)c(C=Nc2cccc(Cl)c2)c(=O)o1` was tested, and the outcome was “inactive”.
`Cn1c(=O)c2c(nc(SCCCC#N)n2Cc2ccccc2F)n(C)c1=O` was tested, and the outcome was “inactive”.
In the case of `N#Cc1nc(-c2ccccc2Cl)oc1N1CCOCC1`, the outcome is reported as “inactive”.
For `CCOC(=O)c1c(C2CC2)csc1NC(C)=O`, the outcome was “inactive”.
With `Nc1nc2n(n1)C(c1ccco1)CC(c1ccc(F)cc1)N2` (stereo unspecified) the outcome was “inactive”.
With `COc1cccc(-c2nnc(SCC(=O)Nc3cc(C)on3)o2)c1` the outcome was “inactive”.
In the case of `CC(=O)N=c1sc2nc3ccccc3nc2n1N(C(C)=O)C(C)=O`, the outcome is reported as “inactive”.
For `Nc1nc(CN2CCN(c3ccccn3)CC2)nc(Nc2ccc(Cl)cc2)n1`, the outcome was “inactive”.
In the case of `CCn1c(=O)c2cc(S(=O)(=O)NC3CCCCC3)ccc2n(CC)c1=O`, the outcome is reported as “inactive”.
For `Cn1cccc1C1NC(=O)c2c(sc3c2CCC(C(C)(C)C)C3)N1` (stereo unspecified), the outcome was “inactive”.
In the case of `COc1ccc(OC)c(/C=N/c2oc(-c3ccco3)c(-c3ccco3)c2C#N)c1`, the EC50 is reported as 1970 nM.
For `Fc1ccc(-c2cc(C(F)(F)F)nc(-n3cncn3)n2)cc1`, the outcome was “inactive”.
In the case of `CCCCSc1nc2c(c(=O)n1CC)SC(C)C2` (stereo unspecified), the outcome is reported as “inactive”.
With `CCOc1ccccc1C1NC(=O)NC(C)=C1C(=O)OC1CCCCC1` (stereo unspecified) the outcome was “inactive”.
In the case of `N#Cc1c(N)nc(-c2ccccc2)nc1-c1ccccc1`, the EC50 is reported as 1170 nM.
For `NC(=O)c1cc(-c2ccccc2)nc(N2CCCCCC2)n1`, the outcome was “inactive”.
`CCOC(=O)c1ccc(Oc2cc(C)nc(SC)n2)cc1` was tested, and the outcome was “inactive”.
With `O=S1(=O)N=C(N2CCc3ccccc3C2)c2ccccc21` the outcome was “inactive”.
For `CCOc1ccccc1C1CC(c2ccccc2)Nc2nc(N)nn21` (stereo unspecified), the outcome was “inactive”.
With `COc1ncnc2c1N[C@@](C)(O)c1c(F)c(F)c(F)c(F)c1S2` the outcome was “inactive”.
In the case of `Cc1ccc(-n2cnnn2)c2cccnc12`, the outcome is reported as “inactive”.
`CCCn1c2c(c(O)c(C(=O)NC)c1=O)CCCC2` was tested, and the outcome was “inactive”.
In the case of `COc1ccc(OC)c(C2C=C(c3ccc(C)c(C)c3)Nc3nnnn32)c1` (stereo unspecified), the outcome is reported as “inactive”.
In the case of `Cc1cccc(-c2c3c(=O)n(C)c(=O)n(C)c3cn2-c2ccccc2O)c1`, the outcome is reported as “inactive”.
`CC(C)C1C2=C(CC(C)(C)CC2=O)ON1c1ccccc1` (stereo unspecified) was tested, and the outcome was “inactive”.
`COc1ccc(C(=O)Nc2nnc(Cc3cccs3)s2)cc1OC` showed an EC50 of 313 nM.
`COc1cc2c(cc1OC)C(C(=O)Nc1ccc3c(c1)OCCO3)C1c3ccccc3CCN1C2=O` (stereo unspecified) was tested, and the outcome was “inactive”.
For `CCCCn1c2nc3ccccc3nc2c2c(=O)n(C(C)CC)cnc21` (stereo unspecified), the outcome was “inactive”.
In the case of `O=C(c1cccn2c(=O)c3cc(Cl)ccc3nc12)N1CCN(Cc2ccc3c(c2)OCO3)CC1`, the outcome is reported as “inactive”.
For `Cc1ccc(Nc2nnc(SCc3cc(=O)n4ccsc4n3)s2)c(C)c1`, the outcome was “inactive”.
`COc1ccc(CCNc2nnc(Sc3nnnn3-c3ccccc3)s2)cc1OC` was tested, and the outcome was “inactive”.
`COc1ncnc2c1N=C1CC(C)(C)CC(N)=C1S2` was tested, and the outcome was “inactive”.
For `CCOc1ncccc1C(=O)OCc1nnc(-c2ccccc2)o1`, the outcome was “inactive”.
`CSc1nc2oc3c(c2c2nncn12)CC(C)(C)SC3` was tested, and the outcome was “inactive”.
For `C=CCc1c(C)nc(SC)nc1Nc1ccc(C(=O)O)cc1`, the outcome was “inactive”.
In the case of `Cc1cc(-n2nc(C)cc2C)nc(NS(=O)(=O)c2ccccc2)n1`, the outcome is reported as “inactive”.
For `Cc1cc(C)c(C#N)c(SCc2ccc(C#N)cc2)n1`, the outcome was “inactive”.
In the case of `CCCn1c(=O)c2ccccc2n2c(SCc3nc4ccccc4s3)nnc12`, the outcome is reported as “inactive”.
